Test results reported in patent EP4717275A1, “ANTI-LUNG CANCER COMBINED DRUG AND USE THEREOF” (Gunagdong Yinzhu Pharmaceutical Technology Co., Ltd, priority 2023, dated 2024).
Where “and” joins values, the source holds several entries; their conditions need not be identical. Equal entries are not always repeated. Where two headings read alike, the source gives them in different places. Marks after values point to notes of the source that are not given here.

Columns and labels:
[1] = Animal body weight, fatality and toxicity observation in the NCI-H2228 xenograft study; assay type: in vivo, BALB/c Nude mice
From the text: (§1) BALB/c Nude mice, female, 8-10 weeks old, 18-20g. The variation of the body weight is ±20% around average body weight. 80 mice were inoculated and 60 mice were grouped.
(§2) The grouping day was designated as Day 0, and administration commenced according to animal body weight.
(§3) The same as the therapeutic effect evaluation experiments for Examples 1-2 and Comparative Examples 1-3.

NCI-H2228 cell = assay: CCK8 proliferation assay with combination index analysis; assay type: cell-based, human; conditions: Alectinib alone
Experimental: CCK8 method was used to evaluate the effect of the drugs towards proliferation of lung cancer cell line (NCI-H2228 cell). The cellular viability with different concentration of drug was assayed and the 50% inhibitory concentration was calculated.
Emerge NCI-H2228 cells (purchased from American Type Culture Collection (ATCC, Manassas, VA, USA)) from liquid nitrogen and thaw in a 37°C water bath. After thawing, culture cells in 1640 medium.
When cell density reached 90% confluence in culture medium, cells were digested with 0.25% trypsin and resuspended. After cell growth stabilized, cells in the logarithmic growth phase were harvested and counted using a cell counter and it was ensured that viability exceeded 85% for all cell lines.
Adjust cell concentration by diluting with culture medium. Add 100 µL of cell suspension to a 96-well plate to achieve a density of 3000 cells/well. Add 100 µL of PBS buffer to the wells around the cell-seeded wells.
Incubate the 96-well plate at 37°C, 5% CO2, and 95% humidity overnight.
Remove the cell culture plate from the incubator, aspirate the culture medium, and add the prepared drug-containing medium. Incubate at 37°C, 5% CO2, and 95% humidity for 72 hours.
Add 10 µL of CCK-8 solution to each well of the 96-well plate. Incubate the plate in the cell culture incubator for 1.5 hours. Measure the absorbance at 450 nm using a microplate reader.
Analyze data using GraphPad Prism 5.0 software. Fit the data using nonlinear S-curve regression to generate a dose-response curve and calculate the IC50 value. [formula]
The analysis of the combination index of the compound was performed using the median effect principle. The formula for the combination index of two compounds is: CI = (D)1/(Dx)1 + (D)2/(Dx)2 [formula]
Where: • (D)1---- The concentration of Compound 1 when compound 1 was used with another compound and the effect X was generated; • (D)2---- The concentration of Compound 2 when compound 2 was used with another compound and the effect X was generated; • (Dx)1---- The concentration of Compound 1 when compound 1 was used alone and the effect X was generated; • (Dx)2---- The concentration of Compound 2 when compound 2 was used alone and the effect X was generated.
The CI value enables quantitative assessment of the nature and strength of interactions between different compounds (Table 2). Interaction strength is measured using the weighted average CI (CIwt), calculated by the formula: CIwt = (CI50+2CI75+3CI90+4CI95)/10 [formula]
Where: • CI50 ---- CI value at EC50 (concentration achieving 50% effect) • CI75, CI90, and CI95 follow the same principle, representing the CI values at EC75, EC90, and EC95, respectively.
Evaluation of the combination effect: CI value is used to evaluate the combination effect, and the judgment method is shown in Table 7. Table 7 Judgment criteria of the results

[2] = test system: human lung cancer NCI-H2228 xenografts; assay: Therapeutic effect in vivo on NCI-H2228 xenografts in nude mice; design: species or system BALB/c Nude mice; conditions: PO
Experimental: as §1
Table 9 Experimental design of therapeutic effect of the drugs in vivo
NCI-H2228 cells were cultured in RPMI 1640 medium supplemented with 10% FBS and maintained in a 37°C, 5% CO2 humidified incubator.
Log-phase NCI-H2228 cells were harvested, resuspended in RPMI 1640 basal medium containing 50% Matrigel, and adjusted to a concentration of 2 × 10^7 cells/mL. Under aseptic conditions, 0.1 mL of the cell suspension was injected subcutaneously into the right flank of mice at a concentration of 2 × 10^6 cells/0.1 mL/mouse.
When the mean tumor volume reached approximately 150 mm^3, animals were randomly grouped based on tumor volume, ensuring inter-group tumor volume variation was less than 10% of the mean.
as §2, §3

[3] = test system: human lung cancer NCI-H1975 xenografts; assay: Therapeutic effect in vivo on NCI-H1975 xenografts in nude mice; design: species or system BALB/c Nude mice; conditions: PO
Experimental: BALB/c Nude mice, female, 8-10 weeks old, 18-20g. […] Table 2 Experimental design of therapeutic effect of the drugs in vivo […] NCI-H1975 cells were cultured in RPMI 1640 medium supplemented with 10% FBS and maintained in a 37°C, 5% CO2 humidified incubator. Log-phase NCI-H1975 cells were harvested, resuspended in RPMI 1640 basal medium containing 50% Matrigel, and adjusted to a concentration of 2 × 10^7 cells/mL. Under aseptic conditions, 0.1 mL of the cell suspension was injected subcutaneously into the right flank of mice at a concentration of 2 × 10^6 cells/0.1 mL/mouse. […] The grouping day was designated as Day 0, and administration commenced according to animal body weight. […] Animal body weight and tumor volume were measured twice weekly throughout the experiment. Tumor length and width were measured using a digital caliper, with tumor volume estimated from these measurements. After the final weighing on Day 21, remaining animals were euthanized with CO2. Tumors were weighed, photographed, and the experiment concluded. […] Tumor growth inhibition rate (%TGITV) is calculated as: […] Relative Tumor Volume (RTV) is calculated as Vt/V0, where V0 is the tumor volume at grouping and Vt is the tumor volume at each measurement. Relative Tumor Growth Rate (%T/CRTV) is calculated as TRTV/CRTV × 100%, where TRTV is the RTV of the treatment group and CRTV is the RTV of the negative control group. Tumor growth inhibition rate (%TGITW) is calculated as: ([…] × 100%, where TWc is the average tumor weight in the negative control group and TWT is the average tumor weight in the treatment group. […] Drug-related animal mortality exceeding 20% indicates severe toxicity at that dose. All experimental data in this study are expressed as Mean ± SEM. The evaluation of the combination index (CI) of drugs relies on the following equation: […]), wherein E(A+B) is the inhibition rate of combination drug, EA and EB is the inhibition rate of drug A and drug B respectively. E(A+B) in the equation represents 'measured synergistic effect' and (EA+EB-EA×EB) is 'expected synergistic effect'. CI=0.85-1.15 indicates a mere addition of the effect of two drugs, >1.15 indicates enhancement (or synergy), and <0.85 indicates antagonism. • Combination index of tumor growth inhibition: CAI, 40mg/kg + AZD9291, 1mg/kg: 1.27; […] CAI, 40mg/kg + AZD9291, 1mg/kg: 1.20; […]

[4] = assay type: in vivo
Experimental: as §1, §2
Animal body weight and tumor volume were measured twice weekly throughout the experiment. Tumor length and width were measured using a digital caliper, with tumor volume estimated from these measurements.
Clinical observations were recorded daily to assess overall health status, weight abnormalities, behavioral changes, and other treatment-related adverse reactions.
In accordance with animal welfare regulations, animals meeting any of the following criteria during the study were removed from the experimental group and euthanized: 1. Body weight loss exceeding 20% compared to Day 0 (BWL ≥ 20%); 2. Severe adverse reactions such as blindness or paralysis; 3. Tumor volume exceeding 2000 mm^3; 4.
The animal body weight change rate (%BWC) is calculated as: (BWt - BW0) / BW0 × 100%, where BWt is the animal body weight at each measurement and BW0 is the animal body weight at grouping.
According to China's NMPA Technical Guidance Principles for Non-clinical Studies of Cytotoxic Antineoplastic Drugs (November 2006), %T/CRTV ≤ 40% and statistically significant P < 0.05 indicate efficacy. Drug-related animal mortality exceeding 20% indicates severe toxicity at that dose.
All experimental data in this study are expressed as Mean ± SEM.

[5] = %TGITV from tumor volume vs control, QD×21
[6] = %TGITW from tumor weight vs control, QD×21

## CCc1cc2c(cc1N1CCC(N3CCOCC3)CC1)C(C)(C)c1[nH]c3cc(C#N)ccc3c1C2=O [Alectinib]
[1]; dead/total animals at Day 21, NCI-H2228 study, PO, QD×21
  Fatality: 0/10 (Day 21)
[1]; mouse, in vivo
  inhibitory effect on animal weight gain: slight inhibition effect on animal body weight
[1]; mouse, in vivo, po
  Average body weight (g, Mean ± SEM) Day 0: 22.48 ± 0.33 g
  Average body weight (g, Mean ± SEM) Day 21: 22.20 ± 0.41 g
  Body weight change Day 21 vs Day 0 (g, in brackets): -0.28 g
  Body weight change rate Day 21 vs Day 0: -1.13%
NCI-H2228 cell; single plates 1-3, 72 hours, read-out: IC50 (Alectinib)
  IC50: 471 nM and 546 nM
NCI-H2228 cell; Homo sapiens, NCI-H2228, 72 h, average of 3 plates, read-out: IC50 (Alectinib)
  IC50: 527 nM
NCI-H2228 cell; Homo sapiens, NCI-H2228, 72 h, single plates 1-3, read-out: IC50 (Alectinib)
  IC50: 563 nM
[2]; %T/CRTV, QD×21
  Relative tumor proliferation rate(%) Day 21: 59.77%
[2]; [5]
  Tumor growth inhibition rate(%) Day 21: 41.23%
[2]; [6]
  Tumor inhibition rate(%) Day 21: 49.14%
[2]; QD×21, dose per group
  Tumor volume (mm^3,Mean±SEM) Day 21: 863.95± 98.37* mm^3
[2]; QD×21, listed as Comparative Example 4
  Tumor weight (g,Mean±SEM) Day 21: 0.444 ± 0.049 g
[2]; RTV = Vt/V0, Mean ± SEM, QD×21
  Relative tumor volume Day 21: 5.23± 0.32

## C=CC(=O)Nc1cc(Nc2nccc(-c3cn(C)c4ccccc34)n2)c(OC)cc1N(C)CCN(C)C [Comparative Example 1, osimertinib]
[3]; %T/CRTV, QD×21
  Relative tumor proliferation rate(%) Day 21: 81.08%
[3]; [5]
  Tumor growth inhibition rate(%) Day 21: 21.02%
[3]; [6]
  Tumor inhibition rate(%) Day 21: 14.73%
[3]; QD×21
  Tumor weight (g,Mean±SEM) Day 21: 1.401 ± 0.212 g
[3]; QD×21, dose per group
  Tumor volume (mm^3,Mean±SEM) Day 21: 1394.40 ±181.52 mm^3
[3]; RTV = Vt/V0, Mean ± SEM, QD×21
  Relative tumor volume Day 21: 8.74 ± 0.73
[4]; dead/total animals at Day 21, NCI-H1975 study, PO, QD×21
  Fatality: 0/10 (Day 21)
[4]; mouse, in vivo, po
  Average body weight (g, Mean ± SEM) Day 0: 19.47 ± 0.28 g
  Average body weight (g, Mean ± SEM) Day 21: 21.46 ± 0.42 g
  Body weight change Day 21 vs Day 0 (g, in brackets): 1.99 g
  Body weight change rate Day 21 vs Day 0: 10.15%
